# From US20260132103A1, “Bumetanide Derivatives for the Therapy of Stroke and Other Neurological Diseases/Disorders Involving NKCCs” (University of Pittsburgh - Of the Commonwealth System of …, priority 2018, published 2026)
# What was measured:
# [1] = system: transient focal cerebral ischemia (tMCAO) in mice; experiment: Adhesive tape removal test after tMCAO; type: in vivo, mouse; settings: days not given (tests on days 1-14); for adhesive tape removal time, last value of the span: end of the span 'x to y'; for adhesive tape removal time, first value of the given span: start of the span 'x to y'
# Source text: FIGS. 2A-2D: Efficacy of NKCC1 inhibitors on improving neurological function in mice after tMCAO (see Example 3). (A) Neurological score, (B) corner test, (C) foot-fault test, and (D)-(E) adhesive tape test during 1-14 day after tMCAO. Data are mean±SD, n=4-9. *p<0.05 for DMSO vs STS66, **p<0.05 for DMSO vs STS5, ***p<0.05 for DMSO vs BMT, #p<0.05 for BMT vs STS66, ###p<0.05 for STS5 vs STS66.
# (§1) Transient focal cerebral ischemia was induced in mice by intraluminal occlusion of the left middle cerebral artery (MCA) for 50 min as described previously (Chen H et al., 2005). Mice were anesthetized with 3% isoflurane in 70%: 30% N2O/O2 until they were unresponsive to the tail pinch test. Animals were then fitted with a nose cone blowing 1.5% isoflurane for anesthesia maintenance. The left common carotid artery was exposed and the occipital artery branches of the external carotid artery were isolated and coagulated. The internal carotid artery was isolated and the extracranial branch was dissected and ligated. A rubber silicon-coated monofilament suture (6-0) was introduced into the internal carotid artery lumen and gently advanced approximately 8-9 mm to block the MCA blood flow for 50 min. The rectal temperature was maintained at 37.0±0.5° C. during surgery through a temperature-controlled heating pad. Achievement of ischemia was confirmed by monitoring regional cerebral blood flow (rCBF) with laser speckle contrast imager (Pericam). For reperfusion, the suture was withdrawn after the MCAO. The incision was closed and the mouse recovered under a heating lamp to maintain the core temperature (36.0-37.0° C.) during the 30-60 min recovery period. After recovery, animals were returned to their cages with free access to food and water.
# (§2) Vehicle: DMSO (2 ml/kg body weight/day), the NKCC1 inhibitor bumetanide (BMT, 10 mg/kg body weight/day in DMSO), bumetanide's prodrug STS5 (13 mg/kg body weight/day in DMSO), or the novel NKCC1 inhibitor STS66 according to the invention (12 mg/kg body weight/day in DMSO) was administered via intraperitoneal injection (i.p). The initial half dose of the drugs (BMT, STS5, STS66) was given at 3 h after the onset of reperfusion and the second half dose at 8 h reperfusion in the tMCAO model.
# An adhesive tape removal test was used to measure somatosensory deficits. Two pieces of adhesive tape (4 mm×3 mm) were attached to the forepaws in an alternating sequence and with equal pressure by the experimenter before each trial. The removal time is defined as the time at which the animal removes the tape. The trial ended after the adhesive patch was removed or after 2 min had elapsed. Pre-operative training was carried twice per day for three days and were tested on day 1, 2, 3, 5, 7, 10 and 14 days after tMCAO (Bouet V, et al., 2009).
# [2] = system: transient focal cerebral ischemia (tMCAO) in mice; experiment: Brain infarct volume and swelling after transient focal cerebral ischemia (tMCAO); type: in vivo, mouse; settings: 24 h reperfusion, i.p.; for hemispheric edema (hemisphere swelling) / infarct volume: normotensive C57BL/6j mice, half dose at 3 h and 8 h reperfusion, BMT 10, STS5 13, STS66 12 mg/kg/day, mean±SD; for infarct volume: male and female combined
# Experimental: FIGS. 1A-1C: Efficacy of NKCC1 inhibitors in reducing ischemic infarction, cerebral edema, and the post-stroke survival in normotensive mice after tMCAO (see Example 3). (1A) Experimental protocol and data collection. Transient middle cerebral artery occlusion (tMCAO) was induced in normal C57/b6 mice. DMSO, BMT (10 mg/kg body weight), STS5 (13 mg/kg) or STS66 (12 mg/kg) was administered via intraperitoneal injection (i.p.) as described in method. (1 B) Representative TTC staining images in normotensive mice at 24 h reperfusion with quantitative analysis of infarct volume. Data are mean±SD, n=6-13 (male, n=3-9; female, n=3-4, *p<0.05). Scale: 5 mm. (1C) Percentage hemisphere swelling at 24 h reperfusion. Data are mean±SD, n=6-13, *p<0.05. (1D) Body weight change during 1-14 days after tMCAO. Data are mean±SD, n=5-9 (male, n=4; female, n=2, *p<0.05). (1E) Survival curve during 1-14 day after tMCAO. Data are mean±SD, n=5-9 (male, n=3-7; female, n=2, *p<0.05).
# as §1, §2
# At 24 h post-reperfusion, mice were anesthetized with 5% isoflurane and then decapitated. Coronal brain slices (2 mm thickness) were stained with 1% 2,3,5-triphenyltetrazolium chloridemonohydrate (TTC) for 20-30 min and brain slices were scanned (Begum G et al., 2015). Ischemic lesions were traced in each slice in a blinded manner, and the total volume of infarction was calculated with correction for edema, as described by Swanson et al., 1990 using ImageJ software. Infarct areas were summed across all slices and multiplied by slice thickness to yield total infarct volume (mm^3). Brain swelling was determined with the following formula. For tMCAO: swelling (% contralateral hemispheric volume)=[(ipsilateral hemispheric volume)−(contralateral hemispheric volume)]/(contralateral hemispheric volume)×100, as described before (Guo Q G et al., 2009; Sunghee Cho et al., 2005).
# GL26 and SB28-GFP cells = experiment: Rubidium uptake assay (Rb+ influx); type: cell-based, mouse
# Experimental: FIGS. 4A-4B: Rb^+ influx was measured in GL26 and SB28-GFP cells in either isotonic (10 min) or hypertonic (5 min) solutions using ICR 8000 machine. (4A) Cells were exposed to isotonic or hypertonic solutions with BMT (10 μM) or STS66 (10 μM). (4B) Cells were exposed to isotonic or hypertonic solutions with different concentrations of STS66 (0 to 40 μM). Results are expressed as means±SEM from four independent experiments. **P<0.01, ***P<0.001, ****P<0.0001.
# FIG. 5: GL26 cells and SB28-GFP cells were first exposed to BMT (10 μM) and different concentration of STS66 (10, 20 and 40 μM) for 48 h, and Rb^+ influx was measured in either isotonic (10 min) or hypertonic (5 min) solutions using ICR 8000 machine. Results are expressed as means±SEM from four independent experiments. *P<0.05, **P<0.01, ***P<0.001, ****P<0.0001.
# GL26 and SB28-GFP cells were seeded in 24-well plates and the rubidium uptake assay was performed on cells that were 60% confluent. TMZ was added to cells for 48 hr incubation. The medium was then removed from the wells and washed with wash buffer (Rb^+ free). After wash buffer was aspirated, isotonic and hypertonic solutions (contain Rb^+) with BMT were added, and cells were incubated at 37° C. for 5 min. […] The Rb^+ concentration was measured using an automated atomic absorption spectrophotometer (Ion Channel Reader, ICR-8000; Aurora Biomed, Vancouver, Canada).
Compound,"adhesive tape removal time, last value of the span [1] [s]","adhesive tape removal time, first value of the given span [1] [s]",hemispheric edema (hemisphere swelling) [2] [%],infarct volume [2] [mm^3],"Rb+ influx inhibition, 48 h incubation (GL26 and SB28-GFP cells; drugs incubated for 48 h, BMT 10 μM, STS66 10, 20 and 40 μM)","Rb+ influx inhibition, short incubation (GL26 and SB28-GFP cells; drugs incubated for short time: isotonic (10 min) or hypertonic (5 min) solutions, STS66 0 to 40 μM)","infarct volume in female mice ([2]; female mice only, STS5 13, STS66 12 mg/kg/day) [mm^3]"
"CCCCNc1cc(C(=O)O)cc(S(N)(=O)=O)c1Oc1ccccc1 [BMT, 3-(butylamino)-4-phenoxy-5-sulfamoylbenzoic acid, reference compound]",17.4 ± 7.6,109.4 ± 10.8,15.4±5.9,65.2±21.7,,,
"CCCCNc1cc(CNCC(F)(F)F)cc(S(N)(=O)=O)c1Oc1ccccc1 [STS66, 3-(Butylamino)-2-phenoxy-5-[(2,2,2-trifluoroethylamino)methyl]benzenesulfonamide]",10.3 ± 5.2,29.7 ± 36.0,14.1±6.1,69.7±17.9,inhibited the Rb^+ influx better than BMT,does not inhibit Rb^+ influx,74.3±9.2
